{"source": "patent EP0624593A2", "about": "“Bile acid derivates, a method for their production and their use as medicines” (HOECHST AKTIENGESELLSCHAFT, priority 1993, dated 1994)", "biological_target": "T1, Na⁺-abhängiges Gallensäuretransportsystem (Bürstensaummembranvesikel des Ileums) (Oryctolagus cuniculus, UniProt Q28727)", "T1 construct": "Präparation von Bürstensaummembranvesikeln aus dem Ileum von Kaninchen; from tissue; host or cells: Brush border membrane vesicles from the terminal ileum of male New Zealand rabbits (Mg2+ precipitation method)", "T1 sequence (Q28727 1-347)": "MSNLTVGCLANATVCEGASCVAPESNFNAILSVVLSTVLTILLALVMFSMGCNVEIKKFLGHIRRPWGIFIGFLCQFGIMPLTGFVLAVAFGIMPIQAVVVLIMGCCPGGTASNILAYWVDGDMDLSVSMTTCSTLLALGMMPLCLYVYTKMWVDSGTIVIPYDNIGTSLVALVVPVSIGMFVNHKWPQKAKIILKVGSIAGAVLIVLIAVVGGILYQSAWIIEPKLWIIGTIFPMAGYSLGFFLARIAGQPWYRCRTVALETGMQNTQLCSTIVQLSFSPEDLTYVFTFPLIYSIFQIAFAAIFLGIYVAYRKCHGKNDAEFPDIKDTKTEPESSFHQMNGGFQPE", "assay": "Inhibition of [³H]-taurocholate uptake into brush border membrane vesicles of rabbit ileum (membrane filtration technique)", "type": "biochemical, Kaninchen", "conditions": "50 µM Taurocholat; for IC50Na-TCDC[µmol] / IC50Na-Substanz[µmol]: quotient of IC50Na of reference Taurochenodesoxycholat (TCDC) and IC50Na of test substance, Na⁺-dependent transport part (difference Na-T-P minus K-T-P); for IC50-TCDC[µmol] / IC50-Substanz[µmol]: quotient of IC50 of reference Taurochenodesoxycholat (TCDC) and IC50 of test substance, [³H]-Taurocholat uptake, usually 1 min incubation", "excerpt": "Die biologische Prüfung der erfindungsgemäßen Verbindungen erfolgte durch Ermittlung der Hemmung der [³H]-Taurocholataufnahme in Bürstensaummembranvesikel des Ileums von Kaninchen. Der Hemmtest wurde wie folgt durchgeführt:\n1. Präparation von Bürstensaummembranvesikeln aus dem Ileum von Kaninchen\nDie Präparation von Bürstensaummembranvisikeln aus den Darmzellen des Dünndarm erfolgte mit der sogenannten Mg²⁺-Präzipitationsmethode. Männliche Neuseeland-Kaninchen (2 bis 2,5 kg Körpergewicht) wurden durch intravenöse Injektion von 0,5 ml einer wäßrigen Lösung von 2,5 mg Tetracain HCl, 100 T 61^R und 25 mg Mebezoniumjodid getötet. Der Dünndarm wurde entnommen und mit eiskalter physiologischer Kochsalzlösung gespült. Die terminalen 7/10 des Dünndarms (gemessen in oral rectaler Richtung, d. h. das terminale Ileum, welches das aktive Na⁺-abhängige Gallensäuretransportsystem enthält) wurden zur Präparation der Bürstensaummembranvesikel verwendet. Die Därme wurden in Kunststoffbeuteln unter Stickstoff bei -80°C eingefroren. Zur Präparation der Membranvesikel wurden die eingefrorenen Därme bei 30°C im Wasserbad aufgetaut. Die Mucosa wurde abgeschabt und in 60 ml eiskaltem 12 mM Tris/HCl-Puffer (pH 7,1)/300 mM Mannit, 5 mM EGTA/10 mg/l Phenylmethylsulfonylfluorid/1 mg/l Trypsin Inhibitor v. Sojabohnen (32 U/mg)/0,5 mg/l Trypsin Inhibitor v. Rinderlunge (193 U/mg)15 mg/l Bacitracin suspendiert. Nach dem Verdünnen auf 300 ml mit eiskaltem destilliertem Wasser wurde mit einem Ultraturrax (18-Stab, IKA Werk Staufen, BRD) 3 Minuten bei 75 % max. Leistung unter Eiskühlung homogenisiert. Nach Zugabe von 3 ml 1 M MgCl₂-Lösung (Endkonzentration 10 mM) ließ man exakt 1 Minute bei 0°C stehen. Durch Zugabe von Mg²⁺ aggregieren die Zellmembranen und präzipitieren mit Ausnahme der Bürstensaummembranen. Nach einer 15-minütigen Zentrifugation bei 3000 x g (5000 rpm, SS-34-Rotor) wurde der Niederschlag verworfen und der Überstand, der die Bürstensaummembranen enthält, 30 Minuten bei […] (15000 rpm, SS-34-Rotor) zentrifugiert. Der Überstand wurde verworfen, der Niederschlag in 60 ml 12 mM Tris/HCl-Puffer (pH 7,1)/60 mM Mannit, 5 mM EGTA mit einem Potter Elvejhem Homogenisator (Braun, Melsungen, 900 rpm, 10 Hübe) rehomogenisiert. Nach Zugabe von 0,1 ml 1 M MgCl₂-Lösung und 15-minütiger Inkubationszeit bei 0°C wurde erneut 15 Minuten bei 3000 x g zentrifugiert. Der Überstand wurde anschließend nochmals 30 Minuten bei 46000 x g (15000 rpm, SS-34-Rotor) zentrifugiert. Der Niederschlag wurde in 30 ml 10 mM Tris/Hepes-Puffer (pH 7,4)/300 mM Mannit aufgenommen und durch 20 Hübe in einem Potter Elvejhem Homogenisator bei 1000 rpm homogen resuspendiert. Nach 30 minütiger Zentrifugation bei 48000 x g (20000 rpm, SS-34-Rotor) wurde der Niederschlag in 0,5 bis 2 ml Tris/Hepes-Puffer (pH 7,4)/280 mM Mannit (Endkonzentration 20 mg/ml) aufgenommen und mit Hilfe einer Tuberkulinspritze mit einer 27 Gauge-Nadel resuspendiert. Die Vesikel wurden entweder unmittelbar nach der Präparation für Transportuntersuchungen verwendet oder bei -196°C in 4 mg Portionen in flüssigem Stickstoff aufbewahrt.\n2. Hemmung der Na⁺-abhängigen [³H]Taurocholat-Aufnahme in Bürstensaummembranvesikel des Ileums\nDie Aufnahme von Substraten in die vorstehend beschriebenen Bürstensaummembranvesikel wurde mittels der sogenannten Membranfiltrationstechnik bestimmt. 10 µl der Vesikelsuspension (100 µg Protein) wurden als Tropfen an die Wand eines Polystyrolinkubationsröhrchens (11 x 70 mm) pipettiert, welches das Inkubationsmedium mit den entsprechenden Liganden enthielt (90 µl). Das Inkubationsmedium enthielt 0,75 µl = 0,75 µCi [³H(G)]-Taurocholat (spezifische Aktivität: 2,1 Ci/mMol) /0,5 µl 10 mM Taurocholat/8,75 µl Natrium-Transport-Puffer (10 mM Tris/Hepes, (pH 7,4)/100 mM Mannit/100 mM NaCl) (Na-T-P) bzw. 8,75 µl Kalium-Transport-Puffer (10 mM Tris/Hepes (pH 7,4)/100 mM Mannit/100 mM KCl) (K-T-P) und 80 µl der betreffenden Inhibitorlösung, je nach Experiment in Na-T-Puffer bzw. K-T-Puffer gelöst. […]"}
{"smiles": "C[C@H](CCC(=O)N[C@H]1C[C@@H]2C[C@H](O)CC[C@]2(C)[C@H]2C[C@H](O)[C@]3(C)[C@@H]([C@H](C)CCC(=O)O)CC[C@H]3[C@H]12)[C@H]1CC[C@H]2[C@@H]3CC[C@@H]4C[C@H](O)CC[C@]4(C)[C@H]3CC[C@]12C", "note": "[Beispiel 29]", "values": [{"measurement": "IC50Na-TCDC[µmol] / IC50Na-Substanz[µmol]", "result": "0,17"}, {"measurement": "IC50-TCDC[µmol] / IC50-Substanz[µmol]", "result": "0,23"}]}
{"smiles": "COC(=O)CC[C@@H](C)[C@H]1CC[C@H]2[C@@H]3[C@H](OCCNC(=O)CCC(=O)NCCCNC(=O)CC[C@@H](C)[C@H]4CC[C@H]5[C@@H]6[C@H](O)C[C@@H]7C[C@H](OC(c8ccccc8)c8ccccc8)CC[C@]7(C)[C@H]6C[C@H](O)[C@]45C)C[C@@H]4C[C@H](OC(C)=O)CC[C@]4(C)[C@H]3C[C@H](O)[C@]12C", "note": "[Beispiel 20]", "values": [{"measurement": "IC50Na-TCDC[µmol] / IC50Na-Substanz[µmol]", "result": "0,12"}]}
{"smiles": "C[C@H](CCC(=O)N[C@H]1C[C@@H]2C[C@H](O)CC[C@]2(C)[C@H]2C[C@H](O)[C@]3(C)[C@@H]([C@H](C)CCC(=O)O)CC[C@H]3[C@H]12)[C@H]1CC[C@H]2[C@@H]3[C@H](O)C[C@@H]4C[C@H](O)CC[C@]4(C)[C@H]3CC[C@]12C", "note": "[Beispiel 27]", "values": [{"measurement": "IC50Na-TCDC[µmol] / IC50Na-Substanz[µmol]", "result": "0,44"}, {"measurement": "IC50-TCDC[µmol] / IC50-Substanz[µmol]", "result": "0,64"}]}
{"smiles": "C[C@H](CCC(=O)N[C@H]1C[C@@H]2C[C@H](O)CC[C@]2(C)[C@H]2C[C@H](O)[C@]3(C)[C@@H]([C@H](C)CCC(=O)NCCS(=O)(=O)O)CC[C@H]3[C@H]12)[C@H]1CC[C@H]2[C@@H]3[C@H](O)C[C@@H]4C[C@H](O)CC[C@]4(C)[C@H]3C[C@H](O)[C@]12C", "note": "[Beispiel 39]", "values": [{"measurement": "IC50Na-TCDC[µmol] / IC50Na-Substanz[µmol]", "result": "1,05"}, {"measurement": "IC50-TCDC[µmol] / IC50-Substanz[µmol]", "result": "0,92"}]}
{"smiles": "C[C@H](CCC(=O)N[C@H]1C[C@@H]2C[C@H](O)CC[C@]2(C)[C@H]2C[C@H](O)[C@]3(C)[C@@H]([C@H](C)CCC(=O)O)CC[C@H]3[C@H]12)[C@H]1CC[C@H]2[C@@H]3[C@H](O)C[C@@H]4C[C@H](O)CC[C@]4(C)[C@H]3C[C@H](O)[C@]12C", "note": "[Beispiel 26]", "values": [{"measurement": "IC50Na-TCDC[µmol] / IC50Na-Substanz[µmol]", "result": "0,29"}]}
{"smiles": "C[C@H](CCC(=O)NCCCNC(=O)CCC(=O)NCCO[C@@H]1C[C@@H]2C[C@H](O)CC[C@]2(C)[C@H]2C[C@H](O)[C@]3(C)[C@@H]([C@H](C)CCC(=O)O)CC[C@H]3[C@H]12)[C@H]1CC[C@H]2[C@@H]3[C@H](O)C[C@@H]4C[C@H](O)CC[C@]4(C)[C@H]3C[C@H](O)[C@]12C", "note": "[Beispiel 32]", "values": [{"measurement": "IC50Na-TCDC[µmol] / IC50Na-Substanz[µmol]", "result": "0,80"}, {"measurement": "IC50-TCDC[µmol] / IC50-Substanz[µmol]", "result": "1,00"}]}
{"smiles": "C[C@H](CCC(=O)NCCO[C@@H]1C[C@@H]2C[C@H](O)CC[C@]2(C)[C@H]2C[C@H](O)[C@]3(C)[C@@H]([C@H](C)CCC(=O)NCCS(=O)(=O)O)CC[C@H]3[C@H]12)[C@H]1CC[C@H]2[C@@H]3[C@H](O)C[C@@H]4C[C@H](O)CC[C@]4(C)[C@H]3C[C@H](O)[C@]12C", "note": "[Beispiel 43]", "values": [{"measurement": "IC50Na-TCDC[µmol] / IC50Na-Substanz[µmol]", "result": "0,96"}, {"measurement": "IC50-TCDC[µmol] / IC50-Substanz[µmol]", "result": "1,18"}]}
{"smiles": "C[C@H](CCC(=O)NCCO[C@@H]1C[C@@H]2C[C@H](O)CC[C@]2(C)[C@H]2C[C@H](O)[C@]3(C)[C@@H]([C@H](C)CCC(=O)O)CC[C@H]3[C@H]12)[C@H]1CC[C@H]2[C@@H]3[C@H](O)C[C@@H]4C[C@H](O)CC[C@]4(C)[C@H]3C[C@H](O)[C@]12C", "note": "[Beispiel 30]", "values": [{"measurement": "IC50Na-TCDC[µmol] / IC50Na-Substanz[µmol]", "result": "0,85"}, {"measurement": "IC50-TCDC[µmol] / IC50-Substanz[µmol]", "result": "0,93"}]}
{"smiles": "C[C@H](CCC(=O)N[C@H]1C[C@@H]2C[C@H](O)CC[C@]2(C)[C@H]2C[C@H](O)[C@]3(C)[C@@H]([C@H](C)CCC(=O)NCCS(=O)(=O)O)CC[C@H]3[C@H]12)[C@H]1CC[C@H]2[C@@H]3[C@H](O)C[C@@H]4C[C@H](O)CC[C@]4(C)[C@H]3CC[C@]12C", "note": "[Beispiel 40]", "values": [{"measurement": "IC50Na-TCDC[µmol] / IC50Na-Substanz[µmol]", "result": "0,52"}, {"measurement": "IC50-TCDC[µmol] / IC50-Substanz[µmol]", "result": "0,54"}]}
{"smiles": "C[C@H](CCC(=O)N[C@H]1C[C@@H]2C[C@H](O)CC[C@]2(C)[C@H]2C[C@H](O)[C@]3(C)[C@@H]([C@H](C)CCC(=O)O)CC[C@H]3[C@H]12)[C@H]1CC[C@H]2[C@@H]3[C@@H](O)C[C@@H]4C[C@H](O)CC[C@]4(C)[C@H]3CC[C@]12C", "note": "[Beispiel 28]", "values": [{"measurement": "IC50Na-TCDC[µmol] / IC50Na-Substanz[µmol]", "result": "0,43"}, {"measurement": "IC50-TCDC[µmol] / IC50-Substanz[µmol]", "result": "0,54"}]}
